Measurements as given in patent US11059846B2, “Immune stimulating compound” (ISR IMMUNE SYSTEM REGULATION HOLDING AB (PUBL), priority 2017, dated 2021).

Key:
human TLR2 = biological target: T1, human TLR2 (Homo sapiens, UniProt O60603); assay: TLR2 reporter assay (HEK-293-TLR cells, SEAP reporter); assay type: cell-based; settings: compound 1 down to 5 μM; others up to 20 μM
T1 construct: host or cells: recombinant HEK-293-TLR cell lines
Procedure: These cell lines functionally over-express human TLR2 protein as well as a reporter gene which is a secreted alkaline phosphatase (SEAP). The production of this reporter gene is driven by an NFkB inducible promoter. […] 20 μl of each test article were used to stimulate the hTLR2 reporter cell lines in a 200 μl of final reaction volume. Samples were tested in duplicate, with at least two concentrations tested −20 μM and 10 μM.
Compounds were tested using a TLR2 reporter assay (see general methods) that measured for stimulation of the TLR2 receptor.

[1] = test system: Human peripheral blood mononuclear cells (PBMCs); assay: Marker expression on PBMC by flow cytometry; assay type: cell-based; settings: 24 h
Procedure: Human peripheral blood mononuclear cells (PBMCs) were purified from healthy donors with Ficoll-Paque density centrifugation. Cells were cultured in complete RPMI-1640 media (Invitrogen) supplemented with 25 mM HEPES, L-glutamine, Sodium pyruvate (Sigma), 10% fetal bovine serum, 100 μg/mL penicillin and 100 μg/mL streptomycin (Hyclone) for 24-72 hours in 37° C., 5% CO2 and stimulated with and increasing concentrations of compound 1 and 2. Cells were then washed in PBS and stained with monoclonal antibodies specific for cell surface markers (BD Pharmingen) and analysed with flow cytomtery using a BD FACS Canto II flow cytometer. All samples were tested in duplicates.
Human peripheral blood mononuclear cells (PBMCs) were purified from healthy donors with Ficoll-Paque density centrifugation. Cells were cultured in complete RPMI-1640 medium (Invitrogen) supplemented with 25 mM HEPES, L-glutamine, Sodium pyruvate (Sigma), 10% fetal bovine serum, 100 μg/mL penicillin and 100 μg/mL streptomycin (Hyclone). Cells were stimulated for 24 h (study 1-4) or 48 h to 1 week (study 5) in 37° C., 5% CO2 with increasing concentrations of compound 1 and 2 in tissue culture plates. The cells were removed from the plate, washed in PBS and analysed for expression of cell specific surface markers and MHC class I with flow cytometry using monoclonal antibodies from BD Pharmingen and a FACS Canto II flow cytometer.

[2] = test system: Monocytes differentiated into macrophages; assay: CD80 expression on monocytes differentiated into macrophages, flow cytometry; assay type: cell-based, Human; settings: 24 h
CD4+ T cells = assay: IL-1beta secretion from CD4+ T cells, cytometric bead assay; assay type: cell-based; settings: 2 days
Procedure: (§1) FIG. 13: IL1b secretion (as measured by cytometric bead assay) from PBMC, macro-phages or CD4 T cells stimulated with indicated compound for 48 h.
(§2) Study 12: PBMCs, macrophages and CD4+ T cells where exposed to compounds 1 and 2 for 2 days.

C57bl/6 mice [3] = assay: MHC class I expression on CD11b+ splenocytes of mice after i.v. injection, flow cytometry; assay type: in vivo; settings: spleen removed 24 h later
Procedure: FIG. 15: % MHC class I high CD11b+ cells in spleen of 3 individual C57bl/6 mice injected 24 h previously with indicated compound. MHC class I and CD11b expression was measured by flow cytometry.
Study 14: Compound 1 or 2 was administered i.v. to C57bl/6 mice.

[4] = test system: PBMCs from CMV infected donors; assay: IFN-gamma secretion from PBMCs of CMV infected donors with CMV antigen, cytometric bead assay; assay type: cell-based, Human; settings: 3 days
From the text: FIG. 9: Interferon-gamma secretion (as measured by cytometric bead assay) from PBMCs (from a CMV+ donor) grown with CMV peptides in the presence or absence of compound 1 or 2 for 5 days.
Study 8: PBMCs from CMV infected donors cultured in the presence of CMV antigen where either untreated or exposed to compound 1 or compound 2 for 3 days.

C57bl/6 mice [5] = assay: CD25 high cells in blood of mice after i.v. injection, flow cytometry; assay type: in vivo
Procedure: FIG. 14: % CD25 high cells in blood of C57bl/6 mice injected 24 h previously with indicated dose of compound 1. CD25 expression was measured by flow cytometry.
Study 13: Compound 1 was administered i.v. to C57bl/6 mice at 0.165 mg/kg to 5 mg/kg. CD25+ cell abundance was increased in animals receiving the highest dose of 5 mg/kg (FIG. 14), as was body weight in the same group (not shown).

[6] = test system: Macrophages from healthy donors; assay: Cytokine/chemokine secretion from macrophages, cytometric bead assay; assay type: cell-based; settings: 2 days
Procedure: FIG. 10: Interferon-gamma secretion (as measured by cytometric bead assay) from macrophages stimulated with indicated compound for 48 h.
(§3) FIG. 11: Chemokine RANTES secretion (as measured by cytometric bead assay) from PBMC or macrophages stimulated with indicated compound for 48 h.
(§4) FIG. 12: IL12p70 secretion (as measured by cytometric bead assay) from PBMC or macrophages stimulated with indicated compound for 48 h.
as §1
Study 9: Macrophages from healthy donors where exposed to compounds 1 or 2 for 48 hours. […] Compound 1 is therefore able to induce IFN-gamma secretion in macrophages from healthy donors.
(§5) Study 10: PBMCs and macrophages where exposed to compounds 1 or 2 for 2 days (FIG. 11).
(§6) Study 11: PBMCs and macrophages where exposed to compounds 1 and 2 for 2 days.
as §2

[7] = test system: CMV specific CD8+ T cells; assay: CMV cultures: phenotype of CMV specific CD8+ T cells; assay type: cell-based, Human; settings: CMV antigen, 6 days
Procedure: FIG. 8. Upregulation of IL-7 receptor a (CD127) on CMV specific CD8 T cells after incubation with compound 1, measured with flow cytometry.
Human peripheral blood mononuclear cells (PBMCs) were purified from healthy CMV positive donors with Ficoll-Paque density centrifugation. The PBMC were labeled with 5 μM celltrace violet (Invitrogen) in PBS for 15 minutes and then washed with complete cell culture medium. The labeled PBMC was cultured in the presence of a peptide library spanning the CMV pp65 protein (1 μg peptide/ml, JPT) in AIM-V media (Invitrogen) supplemented with L-glutamine, Sodium pyruvate (Sigma), 10% fetal bovine serum, 100 μg/mL penicillin and 100 μg/mL streptomycin (Hyclone) for 6-8 days in 37° C., 5% CO2. Cell proliferation was assessed with flow cytomtery using a BD FACS Canto II flow cytometer.
Study 7: CMV virus specific T cell proliferation was also affected by compound 1. […] CD127 is crucial for T cell homeostasis, differentiation and function, and reduced expression correlates with disease severity in HIV and other chronic viral diseases (Crawley et al Sem Imm 2012).

PBMCs = assay: Cytokine/chemokine secretion from PBMC, cytometric bead assay; assay type: cell-based; settings: 2 days
Procedure: as §3, §4, §1, §5, §6, §2

T1 sequence (O60603 21-784): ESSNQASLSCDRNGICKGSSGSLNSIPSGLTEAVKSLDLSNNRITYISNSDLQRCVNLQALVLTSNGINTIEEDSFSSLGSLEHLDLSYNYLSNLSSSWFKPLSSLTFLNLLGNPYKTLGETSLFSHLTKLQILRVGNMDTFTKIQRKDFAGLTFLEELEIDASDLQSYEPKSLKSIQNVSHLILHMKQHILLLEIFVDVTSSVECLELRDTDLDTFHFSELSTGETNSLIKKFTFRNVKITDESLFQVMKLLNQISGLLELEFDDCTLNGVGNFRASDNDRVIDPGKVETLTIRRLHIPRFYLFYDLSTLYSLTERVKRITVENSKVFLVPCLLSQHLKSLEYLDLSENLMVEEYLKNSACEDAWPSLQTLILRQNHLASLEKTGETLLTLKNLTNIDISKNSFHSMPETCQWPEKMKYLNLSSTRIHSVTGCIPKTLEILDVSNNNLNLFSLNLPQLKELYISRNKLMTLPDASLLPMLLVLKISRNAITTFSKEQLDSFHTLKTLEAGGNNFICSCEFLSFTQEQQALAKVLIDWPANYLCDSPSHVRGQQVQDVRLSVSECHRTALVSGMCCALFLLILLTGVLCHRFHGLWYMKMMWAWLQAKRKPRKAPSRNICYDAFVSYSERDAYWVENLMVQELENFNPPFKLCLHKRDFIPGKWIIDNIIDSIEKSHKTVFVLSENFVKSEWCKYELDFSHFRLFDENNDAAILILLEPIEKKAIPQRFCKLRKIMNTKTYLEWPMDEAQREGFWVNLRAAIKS

CC[C@H]1OC(=O)[C@H](C)[C@@H](O[C@H]2C[C@@](C)(OC)[C@@H](O)[C@H](C)O2)[C@H](C)[C@@H](O[C@@H]2O[C@H](C)C[C@H](N(C)C)[C@H]2O)[C@](C)(O)C[C@@H](C)CN(C)[C@H](C)[C@@H](O)[C@]1(C)O [Azithromycin]
stimulation of TLR2 (in words) (human TLR2): little or no stimulation

CC[C@H]1OC(=O)[C@H](C)[C@@H](O[C@H]2C[C@@H](N(C)C)[C@H](O)[C@@H](C)O2)[C@H](C)[C@@H](O)[C@](C)(O)C[C@@H](C)CN(C)[C@H](C)[C@@H](O)[C@]1(C)O [Compound 1]
CD69 expression on B cells ([1]; 1 μM): upregulated
CD69 expression on CD4+ T cells ([1]; 1 μM): upregulated
CD80 expression on monocytes [1]: upregulation
MHC class I (HLA-ABC) expression on B-cells [1]: upregulation
MHC class I (HLA-ABC) expression on T-cells [1]: upregulation
MHC class II (HLA-DR) expression on monocytes [1]: upregulation
CD80 expression on macrophages [2]: upregulated
IL-1beta secretion in CD4+ T cells (CD4+ T cells): no IL-1beta was induced
splenocyte cells (CD11b+) with high MHC I expression (C57bl/6 mice [3]): increase
IFN-gamma secretion [4]: induced secretion of high levels
stimulation of TLR2 (in words) (human TLR2): stimulated TLR2
body weight (C57bl/6 mice [5]; 5 mg/kg group (not shown)): increased
CD25+ cell abundance in blood (C57bl/6 mice [5]; highest dose of 5 mg/kg, 24 h): increased
IL-1beta secretion in macrophages [6]: increased
RANTES expression in macrophages [6]: high expression
expression of IL-7 receptor a (CD127) on activated CMV specific CD8+ T cells [7]: increased expression
IL-1beta secretion in PBMCs (PBMCs): slightly
RANTES expression in PBMCs (PBMCs): twofold upregulation

CC[C@H]1OC(=O)[C@H](C)[C@@H](O[C@H]2C[C@@](C)(OC)[C@@H](O)[C@H](C)O2)[C@H](C)[C@@H](O[C@@H]2O[C@H](C)C[C@H](N(C)C)[C@H]2O)[C@](C)(O)C[C@@H](C)C(=O)[C@H](C)[C@@H](O)[C@]1(C)O [Erythromycin]
stimulation of TLR2 (in words) (human TLR2): little or no stimulation
